Test results taken from article PMC8764033, “Single-molecule analysis of specificity and multivalency in binding of short linear substrate motifs to the APC/C” (Nature Communications, 2022).
Where a SMILES comes first, the peptide text is derived from it.

Molecular target: T1, Cdh1 WD40 domain (yeast) (Saccharomyces cerevisiae, UniProt P53197)
T1 construct: the WD40 domains of yeast Cdh1 (aa 241–550; pNH144); 2xStrep-Tag II (N); made in house; host or cells: Sf9 insect cells (baculovirus)
T1 sequence (P53197 241-550): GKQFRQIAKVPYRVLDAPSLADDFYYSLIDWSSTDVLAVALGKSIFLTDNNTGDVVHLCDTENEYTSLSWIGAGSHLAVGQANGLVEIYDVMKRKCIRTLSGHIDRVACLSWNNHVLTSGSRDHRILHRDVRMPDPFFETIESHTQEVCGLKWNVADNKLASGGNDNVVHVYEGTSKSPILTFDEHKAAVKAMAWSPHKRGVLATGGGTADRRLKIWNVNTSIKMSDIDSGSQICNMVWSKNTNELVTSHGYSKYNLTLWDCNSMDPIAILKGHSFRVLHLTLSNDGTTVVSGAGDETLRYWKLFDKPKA
Assay: Fluorescence anisotropy, 10 nM Cy5-labeled degron peptide, yeast Cdh1 WD40
Assay type: binding
Conditions: up to 30.6 µM Cdh1^WD40; for Kd: Fig. 1a, mean of 2 or 3 independent experiments, wash buffer B, 25 °C, dark peptide where named 100 µM unlabeled, read-out: KD (mean ± SE)
Source text: To determine the affinities of APC/C degrons for their binding sites, we first used conventional equilibrium binding assays of degron peptide binding to the activator. We used the baculovirus system to produce the WD40 domain of Cdh1 from the budding yeast Saccharomyces cerevisiae and measured fluorescence anisotropy to assess the binding of fluorescently-tagged degron peptides at increasing activator concentrations. The WD40 domain of yeast Cdc20 could not be expressed and was not studied.
Activators were cloned into the pFastBac HT A vector, with an N-terminal 2xStrep-Tag II. For some experiments, we constructed vectors for expression of the WD40 domains of yeast Cdh1 (aa 241–550; pNH144), human Cdh1 (aa 165–484; pNH164), or human Cdc20 (aa 162–484; pNH188). For SMOR, a C-terminal GFP tag was added. Bacmid plasmids are listed in Supplementary Table 3. Plasmids were transformed into DH10Bac cells, and purified Bacmid was used to transfect Sf9 cells to generate P1 baculovirus, which was used to generate P2 virus. SF9 cells were infected with the P2 virus for 48 h. Flash-frozen pellets were lysed by sonication or high-pressure homogenization in lysis buffer B (50 mM Tris-HCl pH 8, 150 mM KCl, 0.5 mM EDTA, 1 mM DTT, 10% Glycerol, EDTA-free protease inhibitor tablet, 1 µg ml^−1 pepstatin A). After the lysate was applied to the StrepTrap column, the column was washed with wash buffer B (lysis buffer B lacking protease inhibitors) and eluted in the same buffer containing 2.5 mM desthiobiotin.
Fluorescent degron peptides carried a C-terminal Cy5 label (CPC Scientific) and are listed in Supplementary Table 4. For anisotropy experiments, 10 nM fluorescent peptide was mixed with various concentrations of purified Cdh1 WD40 in wash buffer B at room temperature for 1 min, which we determined was sufficient for the binding reaction to reach equilibrium. Fluorescence was measured on a K2 Multifrequency Fluorometer at 25 °C. All Cy5-labeled peptides were excited with polarized light at 635 nm and emission was detected using a 700/75 nm bandpass filter (ET series, Chroma). […] Data were fitted to one-site equilibrium binding using GraphPad Prism version 8.4 to determine KD. Results were the same when peptide binding was measured in the buffer used in SMOR assays (buffer C, below).

| Molecule | Kd | binding to Cdh1 (in words) |
| --- | --- | --- |
| CC(C)C[C@H](NC(=O)[C@H](C)NC(=O)[C@H](CCCNC(=N)N)NC(=O)[C@H](CCCNC(=N)N)NC(=O)[C@@H]1CCCN1C(=O)[C@H](CCCCN)NC(=O)[C@H](CO)NC(=O)[C@H](CC(=O)O)NC(=O)[C@@H](N)CCC(N)=O)C(=O)N[C@H](C(=O)N[C@@H](CC(=O)O)C(=O)N[C@H](C(=O)N1CCC[C@H]1C(=O)N[C@H](C(=O)N[C@@H](CC(N)=O)C(=O)N[C@@H](CC(N)=O)C(=O)N[C@@H](CC(N)=O)C(=O)N1CCC[C@H]1C(=O)N[C@@H](CC(C)C)C(=O)N[C@@H](CO)C(=O)N[C@@H](CCC(N)=O)C(=O)N[C@@H](CCCCN)C(=O)O)C(C)C)C(C)C)[C@@H](C)O [Clb5 D box] (H-QDSKPRRALTDVPVNNNPLSQK-OH; N-terminus and C-terminus assumed) | > 30.6 µM | Neither D box displayed significant binding to Cdh1 |
| CC[C@H](C)[C@H](NC(=O)[C@H](CC(=O)O)NC(=O)[C@H](CO)NC(=O)[C@H](C)NC(=O)[C@H](C)NC(=O)[C@H](C)NC(=O)[C@H](C)NC(=O)[C@H](CCCCN)NC(=O)[C@@H]1CCCN1C(=O)[C@H](CCCCN)NC(=O)[C@H](CCC(N)=O)NC(=O)[C@@H](N)CCC(=O)O)C(=O)N[C@H](C(=O)N[C@@H](C)C(=O)N[C@@H](CO)C(=O)N[C@@H](Cc1ccccc1)C(=O)N[C@@H](CC(N)=O)C(=O)N[C@@H](CCCCN)C(=O)N[C@@H](CCSC)C(=O)N[C@@H](CC(N)=O)C(=O)N[C@@H](CCCCN)C(=O)O)[C@@H](C)O [Hsl1 D box mutant] (H-EQKPKAAAASDITASFNKMNK-OH; N-terminus and C-terminus assumed) | > 30.6 µM | Binding was abolished |
| CC[C@H](C)[C@H](NC(=O)[C@H](Cc1ccccc1)NC(=O)[C@H](CO)NC(=O)[C@H](CCCCN)NC(=O)[C@H](CO)NC(=O)[C@H](CCCNC(=N)N)NC(=O)[C@H](CC(N)=O)NC(=O)[C@H](CC(N)=O)NC(=O)[C@H](CC(=O)O)NC(=O)[C@H](CCCCN)NC(=O)[C@H](C)NC(=O)[C@H](C)NC(=O)[C@H](CC(C)C)NC(=O)[C@@H]1CCCN1C(=O)[C@H](CC(C)C)NC(=O)[C@H](CCCNC(=N)N)NC(=O)CNC(=O)[C@H](CCC(N)=O)NC(=O)[C@H](CCC(N)=O)NC(=O)[C@H](CCC(N)=O)NC(=O)[C@H](C)N)C(=O)N[C@@H](CCCCN)C(=O)O [ySecurin D box] (H-AQQQGRLPLAAKDNNRSKSFIK-OH; N-terminus and C-terminus assumed) | > 30.6 µM | Neither D box displayed significant binding to Cdh1 |
| SKAAQFMLYEETAEERNI-K(Cy5) [Acm1 ABBA, Cy5-labeled Cdh1-specific ABBA motif from pseudosubstrate yeast protein Acm1] | – | bound with very low affinity to Cdh1 |
